Test results taken from patent US20170197935A1, “INHIBITORS OF DNA GYRASE FOR THE TREATMENT OF BACTERIAL INFECTIONS” (Vitas Pharma Research Private Limited, priority 2012, published 2017).
Converted amounts (≈) assume the structure as drawn. Like-named read-outs stand apart in the source and are kept apart here.

Tests used:
[1] = led to discontinuation from clinical development; North American Journal of Medical Science, 4, 537-47, 2012; cited from earlier work
E. coli (ATCC 25922) = assay: MIC by microbroth dilution, E. coli ATCC 25922; assay type: cell-based; details: Escherichia coli
Description: (§1) Shown below are the microbiological activities of representative compounds of Formula I of the invention. The compounds were tested by the microbroth dilution method (National committee for Clinical Laboratory Standards, 2011, M07-08) and the Minimum Inhibitory Concentration (MIC) was determined.
(§2) Analysis of microbiological activity of compounds shown below are the microbiological activities of representative compounds of Formula II of the invention. The compounds were tested by the microbroth dilution method as per the reference in Example 1.

[2] = system: Methicillin resistant Staphylococcus aureus (ATCC 33591); assay: MIC by microbroth dilution, MRSA ATCC 33591; assay type: cell-based
Description: as §1, §2

[3] = target: T1, ciprofloxacin resistant recombinant Gyrase protein (with mutation S83L) (Escherichia coli, UniProt P0AES4+P0AES6, S83L); assay: Gyrase supercoiling assay with ciprofloxacin resistant Gyrase (S83L); assay type: biochemical; details: read-out: Target specificity: % inhibition of supercoiling activity
T1 construct: purchased Inspiralis
Description: The enzyme is incubated with the substrate (relaxed DNA) in the presence and absence of compounds for 1 hour at 37° C. and the DNA is run on a gel at low voltage for several hours. The amount of supercoiled DNA is quantified using DNA imaging and quantification software (Image Lab). The activity of the enzyme is proportional to the amount of supercoiled form detected.

E. faecalis ATCC 51299 = assay: MIC by microbroth dilution, E. faecalis ATCC 51299; assay type: cell-based; details: Enterococcus faecalis, ATCC51299, Formula II compounds, read-out: Minimum Inhibitory Concentration (MIC) E. faecalis ATCC 51299
Description: as §1, §2

Pseudomonas ATCC 27853 = assay: MIC by microbroth dilution, Pseudomonas ATCC 27853; assay type: cell-based; details: ATCC27853, Formula II compounds, read-out: Minimum Inhibitory Concentration (MIC) Pseudomonas ATCC 27853
Description: as §1, §2

[4] = Single dose pharmacokinetics in male Swiss albino mice; assay type: in vivo; details: mouse, in vivo; for bioavailability: oral 10 mg/kg vs i.v. 5 mg/kg
Description: (§3) Compounds were dosed to male Swiss albino mice to determine the pharmacokinetic profiles.
as §3

Acinetobacter BAA747 = assay: MIC by microbroth dilution, Acinetobacter BAA747; assay type: cell-based; details: Formula II compounds, read-out: Minimum Inhibitory Concentration (MIC) Acinetobacter BAA747
Description: as §1, §2

[5] = system: Enterococcus faecalis (ATCC 29212); assay: MIC by microbroth dilution, Enterococcus faecalis ATCC 29212; assay type: cell-based; details: ATCC29212
Description: (§4) Shown below are the microbiological activities of representative compounds of Formula I of the invention. The compounds were tested by the microbroth dilution method (National committee for Clinical Laboratory Standards, 2011, […]-08) and the Minimum Inhibitory Concentration (MIC) was determined.

[6] = system: K. pneumoniae (ATCC 700603); assay: MIC by microbroth dilution, K. pneumoniae ATCC 700603; assay type: cell-based; details: Klebsiella pneumoniae, ATCC700603, Formula I compounds
Description: as §1, §2

[7] = system: Staphylococcus aureus (ATCC 29213); assay: MIC by microbroth dilution, Staphylococcus aureus ATCC 29213; assay type: cell-based; details: ATCC29213
Description: as §4

hERG = hERG (Homo sapiens, UniProt Q12809); assay: biochemical
Description: To test the ability of the VT-03 compounds to bind the hERG channel, membranes expressing the hERG channel were incubated with radiolabeled Astemizole and displacement of the labeled ligand in the presence of compounds was measured.
To test the ability of the VT-03 compounds (of Formula II) to bind the hERG channel, membranes expressing the hERG channel were incubated with radiolabeled Astemizole and displacement of the labeled ligand in the presence of compounds was measured.

[8] = system: Moraxella catarrhalis (ATCC 8176); assay: MIC by microbroth dilution, Moraxella catarrhalis ATCC 8176; assay type: cell-based; details: ATCC8176
Description: as §4

[9] = system: Streptococcus pneumoniae (ATCC 6301); assay: MIC by microbroth dilution, Streptococcus pneumoniae ATCC 6301; assay type: cell-based; details: ATCC6301
Description: as §4

A. baumannii = assay: Mutation prevention concentration and mutation frequency against A. baumannii; assay type: cell-based
Description: The mutation prevention concentration or the concentration above which mutants are unlikely to be selected, was determined based on published protocols (Antimicrobial Agents and Chemotherapy, 45, 433-438, 2001).
The mutation prevention concentration and mutation frequencies were determined based on published protocols, the reference of which is provided in Example 4.

MRSA E9749 = assay: MIC against FQ resistant clinical strain MRSA E9749; assay type: cell-based; details: Staphylococcus aureus, fluoroquinolone resistant clinical strain, read-out: MIC against FQ resistant strains, MRSA E9749
Description: as §1
(§5) To test if compounds are able to overcome fluoroquinolone resistance, we have determined the MICS against Fluoroquinolone (FQ) resistant clinical strains of MRSA and E. coli.

MRSA E9823 = assay: MIC against FQ resistant clinical strain MRSA E9823; assay type: cell-based; details: Staphylococcus aureus, fluoroquinolone resistant clinical strain, read-out: MIC against FQ resistant strains, MRSA E9823
Description: as §1, §5

[10] = ATCC25922, Formula II compounds, read-out: Minimum Inhibitory Concentration (MIC) E. coli ATCC 25922
[11] = Formula II compounds, read-out: Minimum Inhibitory Concentration (MIC) MRSA ATCC 33591
[12] = ATCC25922, Formula I compounds, read-out: MIC E. coli (ATCC 25922)
[13] = ATCC33591, Formula I compounds, read-out: MIC Methicillin resistant Staphylococcus aureus (ATCC 33591)

COc1ccc2ncc(F)c([C@@H](O)CC[C@@H]3CCN(CCSc4cccs4)C[C@@H]3C(=O)O)c2c1 [NXL-101]
QT prolongation (in words) [1]: causes QT prolongation

Cc1ccc(CNC2CCN(CCn3c(=O)cnc4ccc(F)cc43)CC2)cc1[N+](=O)[O-] [VT-03-00113]
MIC (E. coli (ATCC 25922); [10]): 0.125 µg/mL (≈ 0.284 µM)
MIC [2, 11]: 0.03 µg/mL (≈ 0.0683 µM)
inhibition at 0.1 µM [3]: 90%
inhibition at 1 µM [3]: 94%
MIC (E. faecalis ATCC 51299): 0.25 µg/mL (≈ 0.569 µM)
MIC (Pseudomonas ATCC 27853): 8 µg/mL (≈ 18.2 µM)
AUC(0-t) ([4]; iv, 5 mg/kg): 402 ng·h/mL
Cmax ([4]; iv, 5 mg/kg): 672 ng/mL
Tmax ([4]; iv, 5 mg/kg): 9.6 min
half-life ([4]; iv, 5 mg/kg): 22.2 min
bioavailability [4]: 1.16%
AUC(0-t) ([4]; oral, 10 mg/kg): 9.3 ng·h/mL
Cmax ([4]; oral, 10 mg/kg): 15.6 ng/mL
Tmax ([4]; oral, 10 mg/kg): 30 min
MIC (Acinetobacter BAA747): 0.25 µg/mL (≈ 0.569 µM)

COc1ccc2ncc(C#N)c(CCN3CCC(NC(=O)c4ccc(Cl)c([N+](=O)[O-])c4)CC3)c2c1 [VT-03-00058]
MIC (E. coli (ATCC 25922); [12]): 1 µg/mL (≈ 2.02 µM)
MIC [2, 13]: 0.06 µg/mL (≈ 0.121 µM)
MIC [5]: 0.25 µg/mL (≈ 0.506 µM)
MIC [6]: 16 µg/mL (≈ 32.4 µM)
MIC [7]: 0.015 µg/mL (≈ 0.0304 µM)
IC50 (hERG): > 30 µM
MIC [8]: 0.5 µg/mL (≈ 1.01 µM)
MIC [9]: 0.03 µg/mL (≈ 0.0607 µM)

COc1ccc2ncc(C#N)c(CCN3CCC(NCc4ccc(OC)c([N+](=O)[O-])c4)CC3)c2c1 [VT-03-00063]
MIC (E. coli (ATCC 25922); [12]): 4 µg/mL (≈ 8.41 µM)
MIC [2, 13]: 0.5 µg/mL (≈ 1.05 µM)
MIC [5]: 2 µg/mL (≈ 4.21 µM)
MIC [6]: > 32 µg/mL
MIC [7]: 0.25 µg/mL (≈ 0.526 µM)
IC50 (hERG): > 30 µM
MIC [8]: 0.25 µg/mL (≈ 0.526 µM)
MIC [9]: 0.25 µg/mL (≈ 0.526 µM)

Cc1ccc(CNC2CCN(CCn3c(=O)cnc4ccc(F)cc43)CC2)cc1F [VT-03-00122]
MIC (E. coli (ATCC 25922); [10]): 0.25 µg/mL (≈ 0.606 µM)
MIC [2, 11]: 0.06 µg/mL (≈ 0.145 µM)
Mutation prevention concentration against A. baumannii (A. baumannii): 16 µg/mL
Mutation frequency (A. baumannii; A. baumannii, at 8 μg/ml): 1.10 * 10^−8 at 8 μg/ml
inhibition at 0.1 µM [3]: 95.5%
inhibition at 1 µM [3]: 97.1%
MIC (E. faecalis ATCC 51299): 0.5 µg/mL (≈ 1.21 µM)
MIC (Pseudomonas ATCC 27853): 16 µg/mL (≈ 38.8 µM)
AUC(0-t) ([4]; iv, 5 mg/kg): 242 ng·h/mL
Cmax ([4]; iv, 5 mg/kg): 381 ng/mL
Tmax ([4]; iv, 5 mg/kg): 9.6 min
half-life ([4]; iv, 5 mg/kg): 29.4 min
bioavailability [4]: 7.69%
AUC(0-t) ([4]; oral, 10 mg/kg): 37.3 ng·h/mL
Cmax ([4]; oral, 10 mg/kg): 28.1 ng/mL
Tmax ([4]; oral, 10 mg/kg): 60 min
IC50 (hERG): > 30 µM
MIC (Acinetobacter BAA747): 0.25 µg/mL (≈ 0.606 µM)

COc1ccc2ncc(C#N)c(CCN3CCC(NCc4ccc([N+](=O)[O-])s4)CC3)c2c1 [VT-03-00052]
MIC (E. coli (ATCC 25922); [12]): 16 µg/mL (≈ 35.4 µM)
MIC [2, 13]: 0.25 µg/mL (≈ 0.554 µM)
MIC [5]: 4 µg/mL (≈ 8.86 µM)
MIC (MRSA E9749): 0.25 µg/mL (≈ 0.554 µM)
MIC [7]: 0.125 µg/mL (≈ 0.277 µM)
MIC (MRSA E9823): 0.25 µg/mL (≈ 0.554 µM)
MIC [9]: 1 µg/mL (≈ 2.21 µM)
